Experimental data reported in ChEMBL document CHEMBL1146469, “Tasnemoxides A-C, new cytotoxic cyclic norsesterterpene peroxides from the Red Sea sponge Diacarnus erythraenus” (J Nat Prod, 2004).

What was measured:
Format in all cases: functional, cell-based
P388 = test: Cytotoxicity against mouse P388 cells by dilution assay
A549 = test: Cytotoxicity against human A549 cells by dilution assay
HT-29 = test: Cytotoxicity against human HT-29 cells by dilution assay

Measured: IC50

CC1=C(CCC(C)(O)/C=C/C[C@@]2(C)CC[C@H]([C@H](C)C(=O)O)OO2)C(C)(C)CCC1 (some centres undefined) [TASNEMOXIDE A]
> 1 µg/mL: all assays above

C=C(CCC1=C(C)CCCC1(C)C)C(O)CC[C@@]1(C)CC[C@H]([C@H](C)C(=O)O)OO1 (some centres undefined) [TASNEMOXIDE B]
> 1 µg/mL: all assays above

C=C(CCC[C@@]1(C)CC[C@H]([C@H](C)C(=O)OC)OO1)CCC1(O)C(=C)CCCC1(C)C (some centres undefined) [TASNEMOXIDE C]
> 1 µg/mL: all assays above
